Assay: exhalation test (13CO2/12CO2, carbon dioxide gas Δ value) after oral administration to beagle dogs

Row | Compound | excretion of labeled carbon dioxide gas in the exhalation in the group receiving propantheline versus untreated group (beagle dogs given the capsule of Example 8 granules after propantheline, n=4) | excretion of labeled carbon dioxide gas from the body, in words (male beagle dogs without propantheline, n=4, FIG. 4) | time of maximum of the carbon dioxide gas Δ value, in words (male beagle dogs, n=4, control test, 100 mg NaH13CO3, FIG. 4)
1 | CC(C)[N+](C)(CCOC(=O)C1c2ccccc2Oc2ccccc21)C(C)C [propantheline] | slow compared to that seen in the beagle dogs of the untreated group | – | –
2 | O=C([O-])O.[Na+] [sodium hydrogencarbonate solution, sodium hydrogencarbonate] | – | rapidly excreted from the body | immediately after administration

From US7018613B2, “Preparations for evaluating eliminative ability of stomach” (Otsuka Pharmaceutical Co., Ltd., priority 2000, dated 2006)
